Data reported in ChEMBL document CHEMBL1137399, “Synthesis, structure-activity relationships, and antitumor studies of 2-benzoxazolyl hydrazones derived from alpha-(N)-acyl heteroaromatics” (J Med Chem, 2006).
pIC50: −log10 of the molar value. The source made the active and inactive calls. The rule behind the calls is not given here.

Experiments:
HeLa [1] = experiment: Antiproliferative activity against HeLa cells by SRB assay; type: functional, cell-based; conditions: Homo sapiens
CCRF-CEM = experiment: Antiproliferative activity against CCRF-CEM cells by MTT assay; type: functional, cell-based; conditions: Homo sapiens
Burkitts lymphoma cell = experiment: Antiproliferative activity against Burkitt cells by MTT assay; type: functional, cell-based; conditions: Homo sapiens
HT-29 = experiment: Antiproliferative activity against HT29 cells by SRB assay; type: functional, cell-based; conditions: Homo sapiens
HeLa [2] = experiment: Antiproliferative activity against HeLa-mdr1 cells overexpressing P-glycoprotein in presence of verapamil by SRB assay; type: functional, cell-based; conditions: Homo sapiens
HL-60 = experiment: Ratio for antiproliferative activity against HL60/AR cells to wild type HL60 by MTT assay; type: functional, Homo sapiens
OVCAR-3 = experiment: Net cell kill against human OVCAR-3 cells by hollow fiber assay; type: functional, cell-based
SF-295 = experiment: Net cell kill against human SF295 cells by hollow fiber assay; type: functional, cell-based

Row | SMILES | pIC50 (HeLa [1]) | pIC50 (CCRF-CEM) | pIC50 (Burkitts lymphoma cell) | pIC50 (HT-29) | Activity (HeLa [2]) | Ratio IC50 (HL-60) | Activity (OVCAR-3) | Activity (SF-295)
1 | c1ccc(C(=NNc2nc3ccccc3o2)c2ccccn2)nc1 | 6.81 | 7.36 | 7.92 | 5.16 | – | – | – | –
2 | C/C(=N\Nc1nc2ccccc2o1)c1ccc(C)nn1 | 5.47 | 5.59 | 5.20 | 5.17 | – | – | – | –
3 | C/C(=N\Nc1nc2ccccc2o1)c1cc(C)ncn1 | 6.68 | 6.64 | 7.38 | 6.96 | – | – | – | –
4 | CC(C)(C)/C(=N\Nc1nc2ccccc2o1)c1ccccn1 | < 5.00 | < 5.00 | < 5.00 | < 5.00 | – | – | – | –
5 | C/C(=N\N(C)c1nc2ccccc2o1)c1ccccn1 | < 4.30 | < 4.30 | < 4.30 | < 4.30 | – | – | – | –
6 | c1ccc(/C(=N\Nc2nc3ccccc3o2)c2ccccn2)cc1 | 7.37 | 7.11 | 6.92 | 7.36 | – | – | – | –
7 | C/C(=N\Nc1nc2ccccc2o1)c1ccccn1 | 6.11 | 7.62 | 8.30 | 5.84 | – | – | – | –
8 | c1ccc(/C(=N/Nc2nc3ccccc3o2)C2CC2)nc1 | 5.35 | – | 6.73 | 4.69 | – | – | – | –
9 | CC/C(=N\Nc1nc2ccccc2o1)c1ccccn1 | 7.28 | 8.40 | 8.70 | 6.39 | – | – | – | –
10 | C/C(=N\Nc1nc2ccccc2o1)c1cccnn1 | 5.93 | 6.14 | 5.89 | 5.58 | – | – | – | –
11 | C/C(=N\Nc1nc2ccccc2o1)c1cccc[n+]1[O-] | 6.54 | – | 7.57 | 5.32 | – | – | – | –
12 | CC[C@]1(O)C[C@@H]2CN(CCc3c([nH]c4ccccc34)[C@@](C(=O)OC)(c3cc4c(cc3OC)N(C)[C@H]3[C@@](O)(C(=O)OC)[C@H](OC(C)=O)[C@]5(CC)C=CCN6CC[C@]43[C@@H]65)C2)C1 | – | – | – | – | Active | – | – | –
13 | C/C(=N\Nc1nc2ccccc2o1)c1ncccn1 | 6.74 | 6.89 | 7.52 | 6.57 | – | – | – | –
14 | C/C(=N\Nc1nc2ccccc2o1)c1ccncn1 | 6.30 | 6.44 | 6.84 | 6.72 | – | – | – | –
15 | CCC/C(=N\Nc1nc2ccccc2o1)c1ccccn1 | 6.82 | 8.22 | 8.22 | 6.07 | – | – | – | –
16 | CC(C)/C(=N\Nc1nc2ccccc2o1)c1ccccn1 | 6.73 | 7.68 | 7.85 | 6.19 | – | – | – | –
17 | C/C(=N\Nc1nc2ccccc2o1)c1ccc2ccccc2n1 | 5.34 | 5.15 | 5.26 | 5.11 | – | – | – | –
18 | C/C(=N\Nc1nc2ccccc2o1)c1nccc2ccccc12 | 6.47 | 6.46 | 6.70 | 5.71 | – | – | – | –
19 | C/C(=N\Nc1nc2ccccc2o1)c1nccnc1C | 5.73 | 5.89 | 6.05 | 5.67 | – | – | – | –
20 | C/C(=N\Nc1nc2ccccc2o1)c1cnc(C)cn1 | 6.43 | 6.21 | 6.82 | 6.54 | – | – | – | –
21 | c1ccc(C/C(=N\Nc2nc3ccccc3o2)c2ccccn2)cc1 | 7.38 | < 5.00 | < 5.00 | 6.66 | – | – | – | –
22 | C/C(=N\Nc1nc2ccccc2o1)c1cccnc1 | < 4.00 | < 4.00 | < 4.00 | < 4.00 | – | – | – | –
23 | C/C(=N\Nc1nc2ccccc2o1)c1cc2ccccc2cn1 | 7.00 | 6.85 | 7.52 | 7.40 | inactive | 1.7 | Active | Active
